In US9938292B2 (GUANGDONG ZHONGSHENG PHARMACEUTICAL CO., LTD, priority 2014, dated 2018):
pIC50: −log10 of the molar value.

system: Hedgehog signaling pathway; experiment: Gli-Luc luciferase reporter gene assay in C3H10T1/2/Gli-Luc cells under Shh-N stimulation; type: cell-based; conditions: 24 h, luciferase RLU, read-out: biological activity: IC50 of the inhibitory activities of compounds on the hedgehog pathway
From the text: The luciferase (Gli-Luc) reporter gene with Gli response element was transfected into C3H10T1/2 cells, under Shh-N stimulation conditions, determine the Hedgehog signaling pathway inhibitors through the detection of gene expression in cell activity report. In this study, we evaluated the inhibitory effects of compounds on Hedgehog signaling pathway in the IC50 value of the compound as an index.
Cell lines: C3H10T1/2/Gli-Luc stable cell line • C3H10T1/2/Gli-Luc Cell culture medium (DMEM/high glucose HyClone, #SH30022.01B; 10% serum Hyclone, #SV30087; 0.4% Hygromycin B Roche, #13398200) • 0.25% Trypsin-EDTA (Gibco, #25200)
Shh-N, HEK293/SHH-N stable cell culture supernatant
Inoculate the logarithmic growth phase of C3H10T1/2/Gli-Luc cells into a 96-well culture plate with 20000 cells per well, cells were cultured in a 37° C., 5% CO2 incubator overnight. The next day, the compounds were diluted in the following ways: the positive compound GDC0449 (1 mM) and the compounds (1 mM) to be measured were serially diluted to 7 concentrations by DMSO according to 1:3 and 1:10 respectively, the eighth is for DMSO control, and then diluted with fresh medium 100 times. The medium of the cells cultured overnight was removed, 80 μL fresh culture medium was added per well, then 20 μL gradiently diluted positive compound and compounds to be measured and 100 μL 30 nM Shh-N containing conditioned medium were added, each concentration repeated 2 wells, at the same time, positive and negative reference well were set (i.e. Shh Ctrl: 80 μL fresh medium+20 μL 1% DMSO containing medium+100 μL 30 nM Shh-N containing conditioned medium; Unstimulated Ctrl: 180 μL fresh medium+20 μL 1% DMSO containing medium), cells were cultured in the incubator for further 24 h.
Intracellular luciferase activity detection: take the cells out of 96-well plate, discard the culture medium, the cells were washed with PBS twice, then each well added with 20 μL lysate (Promega E1531), oscillate pyrolysis at room temperature for 30 min. 5 μL cell lysates were transferred to 384-well plate (Greiner 781074), then each well was added with 25 μL luciferase reaction liquid (Promega E1501), after rapid mixed, immediately placed into the VarioSkan Flash multi-function reading instrument to read the relative light units (RLU) value.
Data analysis: using Prism's GraphPad 5 for data analysis. RLU reading to the logarithmic mapping of compound concentration on behalf of luciferase activity, and then curve fitting using the following equation to give IC50 value, Y (RLU)=minimum+(maximum−minimum)/(1+10^(log of compound concentration−Log IC50)).

Row | pIC50 | SMILES
1 | 6.30 to 7.00 | Cc1cn(-c2ccc(N3C[C@@H](C)N(C(=O)c4ccccc4)[C@H](C)C3)cc2)c(=O)c2cccc(-c3ccc(C#N)cc3)c12 [Embodiment 21]

same assay, conditions: Mus musculus, C3H 10T1/2, 24 h, luciferase RLU, read-out: biological activity: IC50 of the inhibitory activities of compounds on the hedgehog pathway

Row | SMILES | pIC50
2 | COc1c(-c2ccc(N3C[C@@H](C)O[C@@H](C)C3)cc2)cnc2c(-c3ccc(C#N)cc3)cncc12 | ≥ 7.30
3 | Cc1cn(-c2ccc(N3CCOC(C)(C)C3)cc2)c(=O)c2cccc(-c3ccc(C#N)cc3)c12 [Embodiment 4] | 6.30 to 7.00
4 | COc1cccc(N2CCN(c3ccc(-n4cc(C)c5c(-c6ccc(C#N)cc6)cccc5c4=O)cc3)CC2(C)C)c1 [Embodiment 5] | 6.30 to 7.00
5 | Cc1cn(-c2ccc(N3CC4CC3CO4)cc2)c(=O)c2cccc(-c3ccc(C#N)cc3)c12 (stereo not drawn) [Embodiment 6] | 6.00 to 6.30
6 | Cc1cn(-c2ccc(N3CC4CCC(C3)O4)cc2)c(=O)c2cccc(-c3ccc(C#N)cc3)c12 [Embodiment 7] | 6.00 to 6.30
7 | Cc1cn(-c2ccc(N3CCOC(CN(C)C)C3)cc2)c(=O)c2cccc(-c3ccc(C#N)cc3)c12 (stereo not drawn) [Embodiment 9] | 5.30 to 6.00
8 | Cc1cn(-c2ccc(N3CCN4CCC[C@H]4C3)cc2)c(=O)c2cccc(-c3ccc(C#N)cc3)c12 [Embodiment 10] | 6.30 to 7.00
9 | Cc1cn(-c2ccc(N3CCN4CCCC4C3)cc2)c(=O)c2cccc(-c3ccc(C#N)cc3)c12 (stereo not drawn) [Embodiment 11] | 6.30 to 7.00
10 | Cc1cn(-c2ccc(NCCN3C[C@@H](C)O[C@@H](C)C3)cc2)c(=O)c2cccc(-c3ccc(C#N)cc3)c12 [Embodiment 12] | 6.00 to 6.30
11 | Cc1cn(-c2ccc(N3CCN(c4nsc5ccccc45)CC3)cc2)c(=O)c2cccc(-c3ccc(C#N)cc3)c12 [Embodiment 13] | 6.30 to 7.00
12 | Cc1cn(-c2ccc(N3C[C@@H](C)N(C(=O)c4ccccc4)[C@H](C)C3)cc2)c(=O)c2cccc(-c3ccc(C#N)cc3)c12 [Embodiment 14, 4-(2-(4-((3R,5R)-4-benzoyl-3,5-dimethylpiperazin-1-yl)phenyl)-4-methyl-1-oxo-1,2-dihydroisoquinolin-5-yl)benzonitrile] | 7.00 to 7.30
13 | CCC(=O)N1CCN(c2ccc(-n3cc(C)c4c(-c5ccc(C#N)cc5)cccc4c3=O)cc2)CC1C (stereo not drawn) [Embodiment 17] | 7.00 to 7.30
14 | CCC(=O)N1CCN(c2ccc(-n3cc(C)c4c(-c5ccc(C#N)cc5)cccc4c3=O)cc2)CC1c1ccccc1 (stereo not drawn) [Embodiment 18] | 6.30 to 7.00
15 | Cc1cn(-c2ccc(N3CC(C)N(C(=O)c4ccccc4)C(C)C3)cc2)c(=O)c2cccc(-c3ccc(C#N)cc3)c12 (stereo not drawn) [Embodiment 27] | ≥ 7.30
16 | Cc1cn(-c2ccc(N3CC(C)N(Cc4ccccc4)C(C)C3)cc2)c(=O)c2cccc(-c3ccc(C#N)cc3)c12 (stereo not drawn) [Embodiment 35] | 6.30 to 7.00
17 | Cc1cn(-c2ccc(N3CC(C)N(c4nccs4)C(C)C3)cc2)c(=O)c2cccc(-c3ccc(C#N)cc3)c12 (stereo not drawn) [Embodiment 38] | ≥ 7.30
18 | Cc1cn(-c2ccc(N3CC(C)(C)C(O)C(C)(C)C3)cc2)c(=O)c2cccc(-c3ccc(C#N)cc3)c12 [Embodiment 39, 4-(2-(4-(4-hydroxy-3,3,5,5-tetramethylpiperidin-1-yl)phenyl)-4-methyl-1-oxo-1,2-dihydroisoquinolin-5-yl)benzonitrile] | ≥ 7.30
19 | Cc1cn(-c2ccc(N3CCN4C(=O)CC[C@H]4C3)cc2)c(=O)c2cccc(-c3ccc(C#N)cc3)c12 [Embodiment 40, (S)-4-(4-methyl-1-oxo-2-(4-(6-oxo-hexahydropyrrolo[1,2-a]pyrazin-2(1H)-yl)phenyl)-1,2-dihydroisoquinolin-5-yl)benzonitrile] | ≥ 7.30
20 | Cc1cn(-c2ccc(N3Cc4nnc(C(F)(F)F)n4C(C)C3)cc2)c(=O)c2cccc(-c3ccc(C#N)cc3)c12 (stereo not drawn) [Embodiment 41, 4-(4-methyl-2-(4-(5-methyl-3-(trifluoromethyl)-5,6-dihydro-[1,2,4]triazolo[4,3-a]pyrazin-7(8H)-yl)phenyl)-1-oxo-1,2-dihydroisoquinolin-5-yl)benzonitrile] | ≥ 7.30
21 | Cc1cn(-c2ccc(N3CCN4C(=O)OCC4C3)cc2)c(=O)c2cccc(-c3ccc(C#N)cc3)c12 (stereo not drawn) [Embodiment 42, 4-(4-methyl-1-oxo-2-(4-(3-oxotetrahydro-1H-oxazolo[3,4-a]pyrazin-7(3H)-yl)phenyl)-1,2-dihydroisoquinolin-5-yl)benzonitrile] | 6.30 to 7.00
22 | Cc1cn(-c2ccc(N3C[C@@H](C)O[C@@H](C)C3)cc2)c(=O)c2cccc(-c3ccoc3)c12 [Embodiment 43, 2-(4-((2S,6R)-2,6-dimethylmorpholino)phenyl)-5-(furan-3-yl)-4-methylisoquinolin-1(2H)-one] | 5.30 to 6.00
23 | Cc1cn(-c2ccc(N3C[C@@H](C)O[C@@H](C)C3)cc2)c(=O)c2cccc(-c3ccc(C#N)s3)c12 [Embodiment 44] | 6.00 to 6.30
24 | Cc1cn(-c2ccc(N3C[C@@H](C)O[C@@H](C)C3)cc2)c(=O)c2cccc(-c3ccc(Cl)s3)c12 [Embodiment 45] | 5.30 to 6.00
25 | Cc1cn(-c2ccc(N3C[C@@H](C)O[C@@H](C)C3)cc2)c(=O)c2cccc(-c3ccc(OC(F)(F)F)cc3)c12 [Embodiment 47] | 5.30 to 6.00

The next lines start with the values.

Row | pIC50 | SMILES
26 | 6.30 to 7.00 | Cc1cn(-c2ccc(N3C[C@H](C)C[C@@H](C)C3)cc2)c(=O)c2cccc(-c3ccc(C#N)cc3)c12 [Embodiment 1, 4-(2-(4-((3R,5R)-3,5-dimethylpiperidin-1-yl)phenyl)-4-methyl-1-oxo-1,2-dihydroisoquinolin-5-yl)benzonitrile]
27 | 6.30 to 7.00 | Cc1cn(-c2ccc(N3CC(C)OC(C)C3)cc2)c(=O)c2cccc(-c3ccc(C#N)cc3)c12 (stereo not drawn) [Embodiment 2]
28 | 6.30 to 7.00 | Cc1cn(-c2ccc(N3CC(C)CC(C)C3)cc2)c(=O)c2cccc(-c3ccc(C#N)cc3)c12 (stereo not drawn) [Embodiment 3]
29 | 6.30 to 7.00 | Cc1cn(-c2ccc(N3CC(C)NC(C)C3)cc2)c(=O)c2cccc(-c3ccc(C#N)cc3)c12 (stereo not drawn) [Embodiment 15]
30 | 6.30 to 7.00 | Cc1cn(-c2ccc(N3CC(C)N(C(=O)OC(C)(C)C)C(C)C3)cc2)c(=O)c2cccc(-c3ccc(C#N)cc3)c12 (stereo not drawn) [Embodiment 16]
31 | 6.30 to 7.00 | COC(=O)N1[C@H](C)CN(c2ccc(-n3cc(C)c4c(-c5ccc(C#N)cc5)cccc4c3=O)cc2)C[C@H]1C [Embodiment 19]
32 | 6.30 to 7.00 | CCOC(=O)N1[C@H](C)CN(c2ccc(-n3cc(C)c4c(-c5ccc(C#N)cc5)cccc4c3=O)cc2)C[C@H]1C [Embodiment 20]
33 | 7.00 to 7.30 | CC(=O)N1C(C)CN(c2ccc(-n3cc(C)c4c(-c5ccc(C#N)cc5)cccc4c3=O)cc2)CC1C (stereo not drawn) [Embodiment 22]
34 | 7.00 to 7.30 | Cc1cn(-c2ccc(N3CC(C)N(C(=O)C(C)C)C(C)C3)cc2)c(=O)c2cccc(-c3ccc(C#N)cc3)c12 (stereo not drawn) [Embodiment 24]
35 | 7.00 to 7.30 | Cc1cn(-c2ccc(N3CC(C)N(C(=O)C(C)(C)C)C(C)C3)cc2)c(=O)c2cccc(-c3ccc(C#N)cc3)c12 (stereo not drawn) [Embodiment 25]
36 | 7.00 to 7.30 | Cc1cn(-c2ccc(N3CC(C)N(C(=O)C4CC4)C(C)C3)cc2)c(=O)c2cccc(-c3ccc(C#N)cc3)c12 (stereo not drawn) [Embodiment 26]
37 | ≥ 7.30 | COC(=O)N1C(C)CN(c2ccc(-n3cc(C)c4c(-c5ccc(C#N)cc5)cccc4c3=O)cc2)CC1C (stereo not drawn) [Embodiment 28]
38 | 6.30 to 7.00 | Cc1cn(-c2ccc(N3CC(C)N(C(=O)OC(C)C)C(C)C3)cc2)c(=O)c2cccc(-c3ccc(C#N)cc3)c12 (stereo not drawn) [Embodiment 29]
39 | 6.30 to 7.00 | CNC(=O)N1C(C)CN(c2ccc(-n3cc(C)c4c(-c5ccc(C#N)cc5)cccc4c3=O)cc2)CC1C (stereo not drawn) [Embodiment 30]
40 | 6.30 to 7.00 | Cc1cn(-c2ccc(N3CC(C)N(S(C)(=O)=O)C(C)C3)cc2)c(=O)c2cccc(-c3ccc(C#N)cc3)c12 (stereo not drawn) [Embodiment 31]
41 | 6.30 to 7.00 | Cc1cn(-c2ccc(N3CC(C)N(S(=O)(=O)c4ccccc4)C(C)C3)cc2)c(=O)c2cccc(-c3ccc(C#N)cc3)c12 (stereo not drawn) [Embodiment 32]
42 | 6.30 to 7.00 | Cc1cn(-c2ccc(N3CC(C)N(C)C(C)C3)cc2)c(=O)c2cccc(-c3ccc(C#N)cc3)c12 (stereo not drawn) [Embodiment 33, 4-(4-methyl-1-oxo-2-(4-(3,4,5-trimethylpiperazin-1-yl)phenyl)-1,2-dihydroisoquinolin-5-yl)benzonitrile]
43 | 6.30 to 7.00 | CCN1C(C)CN(c2ccc(-n3cc(C)c4c(-c5ccc(C#N)cc5)cccc4c3=O)cc2)CC1C (stereo not drawn) [Embodiment 34]
44 | 6.30 to 7.00 | Cc1cn(-c2ccc(N3CC(C)N(CC4CC4)C(C)C3)cc2)c(=O)c2cccc(-c3ccc(C#N)cc3)c12 (stereo not drawn) [Embodiment 36]
45 | 6.30 to 7.00 | Cc1cn(-c2ccc(N3CC(C)N(CC(C)(C)O)C(C)C3)cc2)c(=O)c2cccc(-c3ccc(C#N)cc3)c12 (stereo not drawn) [Embodiment 37]
